The supplement of paper PMC10920090

Legend:
[1] = tested on: MDA-MB-231; assay: drug sensitivity score (DSS), cytotoxicity CellTox Green; higher = more cytotoxic; extreme values may be limits of the assay; settings: 72 h
[2] = tested on: MDA-MB-231; assay: drug sensitivity score (DSS), cell viability CellTiter-Glo; higher = more sensitive; extreme values may be limits of the assay; settings: 72 h
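Throughout, for drug sensitivity score (DSS), cytotoxicity CellTox Green: DSS summarises each dose–response curve by combining IC50, EC50, maximal inhibition and efficacy across drug concentrations.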

Structure (SMILES)	drug sensitivity score ([1]; shRNA: shPPFIA1_1)	drug sensitivity score ([1]; shRNA: shScramble)	drug sensitivity score ([2]; shRNA: shPPFIA1_1)	drug sensitivity score ([2]; shRNA: shScramble)
Nc1nc(N)c2nc(-c3cccc(O)c3)c(-c3cccc(O)c3)nc2n1 [TG100-115]	0 DSS	0 DSS	5.7 DSS	19 DSS
CNC(=O)[C@@H](NC(=O)[C@H](CC(C)C)[C@H](O)C(=O)NO)C(C)(C)C [Marimastat]	0 DSS	0 DSS	0.2 DSS	0 DSS
Cc1c(NC(=O)OC[C@@H]2COCCN2)cn2ncnc(Nc3ccc4c(cnn4Cc4cccc(F)c4)c3)c12	0 DSS	0 DSS	1.2 DSS	2.4 DSS
CC(C)(C)c1cnc(CSc2cnc(NC(=O)C3CCNCC3)s2)o1 [SNS-032]	10.5 DSS	6.3 DSS	5.8 DSS	13.1 DSS
CCNC(=O)CCC/C=C\C[C@@H]1[C@@H](/C=C/[C@@H](O)CCc2ccccc2)[C@H](O)C[C@@H]1O [Bimatoprost]	0 DSS	0 DSS	0 DSS	0 DSS
CN(C)C[C@@H]1CCn2cc(c3ccccc32)C2=C(C(=O)NC2=O)c2cn(c3ccccc23)CCO1 [Ruboxistaurin]	3.8 DSS	5.5 DSS	7.2 DSS	7 DSS
COc1cc([C@@H]2c3cc4c(cc3[C@@H](O[C@@H]3O[C@@H]5CO[C@@H](c6cccs6)O[C@H]5[C@H](O)[C@H]3O)[C@H]3COC(=O)[C@H]23)OCO4)cc(OC)c1O [Teniposide]	5.8 DSS	5.3 DSS	3.1 DSS	9 DSS
CNC(=O)c1ccc(-c2cnc3ncc(Cc4ccc5ncccc5c4)n3n2)cc1F [NVP-INC280]	0 DSS	0 DSS	4.5 DSS	10.5 DSS
Cn1nnc2c(C(N)=O)ncn2c1=O [Temozolomide]	0 DSS	0 DSS	1.8 DSS	2.6 DSS
N.N.[Cl][Pt][Cl] [Cisplatin]	4 DSS	3.5 DSS	2 DSS	7.6 DSS
Cc1ccc(NC(=O)c2ccc(CN3CC[C@H](N(C)C)C3)c(C(F)(F)F)c2)cc1Nc1nccc(-c2cncnc2)n1 [Bafetinib]	0.6 DSS	0.5 DSS	0 DSS	4.3 DSS
C=CC(=O)Nc1cccc(Nc2nc(Nc3ccc(OCCOC)cc3)ncc2F)c1 [Spebrutinib]	0 DSS	0 DSS	0 DSS	0.4 DSS
CN(C)C1CCN(C(=O)c2ccc(NC(=O)Nc3ccc(-c4nc(N5CCOCC5)nc(N5CCOCC5)n4)cc3)cc2)CC1 [Gedatolisib]	0 DSS	0 DSS	7.2 DSS	20.8 DSS
CCc1c2c(nc3ccc(O)cc13)-c1cc3c(c(=O)n1C2)COC(=O)[C@]3(O)CC [SN-38]	14.9 DSS	2 DSS	0.2 DSS	7.6 DSS
CN1CCN(CCOc2cc(OC3CCOCC3)c3c(Nc4c(Cl)ccc5c4OCO5)ncnc3c2)CC1 [Saracatinib]	2.5 DSS	1.3 DSS	2.9 DSS	2.7 DSS
O=C(Cc1ccc(-c2ccc(OCCN3CCOCC3)cc2)cn1)NCc1ccccc1 [KX2-391]	5.5 DSS	1.8 DSS	2.1 DSS	8.2 DSS
CC/C(=C(\c1ccccc1)c1ccc(OCCN(C)C)cc1)c1ccccc1 [Tamoxifen]	6.3 DSS	1.8 DSS	1.8 DSS	1 DSS
COCC[n+]1c2c(n(Cc3cnccn3)c1C)C(=O)c1ccccc1C2=O [YM155]	20.5 DSS	34.6 DSS	24.1 DSS	33.4 DSS
CO[C@@H]1[C@H](N(C)C(=O)c2ccccc2)C[C@H]2O[C@]1(C)n1c3ccccc3c3c4c(c5c6ccccc6n2c5c31)C(=O)NC4 [Midostaurin]	0 DSS	0.1 DSS	0 DSS	3.5 DSS
Cc1c(N)nc([C@H](CC(N)=O)NC[C@H](N)C(N)=O)nc1C(=O)N[C@H](C(=O)N[C@H](C)[C@@H](O)[C@H](C)C(=O)N[C@H](C(=O)NCCc1nc(-c2nc(C(=O)NCCC[S+](C)C)cs2)cs1)[C@@H](C)O)[C@@H](OC1OC(CO)C(O)C(O)C1OC1OC(CO)C(O)C(OC(N)=O)C1O)c1cnc[nH]1 (some centres undefined) [Bleomycin]	0.1 DSS	0 DSS	0 DSS	3.5 DSS
CC(C)c1cc(C(=O)N2Cc3ccc(CN4CCN(C)CC4)cc3C2)c(O)cc1O [Onalespib]	0 DSS	2.6 DSS	13.6 DSS	10.6 DSS

Structure (SMILES)	drug sensitivity score ([1]; shRNA: shPPFIA1_1)	drug sensitivity score ([1]; shRNA: shScramble)	drug sensitivity score ([2]; shRNA: shPPFIA1_1)	drug sensitivity score ([2]; shRNA: shScramble)
O=C(O)c1ccc(Nc2ncc3c(n2)-c2ccc(Cl)cc2C(c2c(F)cccc2F)=NC3)cc1 [MLN-8054]	0 DSS	0 DSS	0.1 DSS	2.2 DSS
NC1(c2ccc(-c3nc4ccn5c(=O)[nH]nc5c4cc3-c3ccccc3)cc2)CCC1 [MK-2206]	0 DSS	0 DSS	6.5 DSS	6.8 DSS
CNC(=O)c1cc(Oc2ccc(NC(=O)Nc3ccc(Cl)c(C(F)(F)F)c3)cc2)ccn1 [Sorafenib]	0 DSS	0 DSS	0 DSS	0 DSS
COc1cc(Nc2c(C#N)cnc3cc(OCCCN4CCN(C)CC4)c(OC)cc23)c(Cl)cc1Cl [Bosutinib]	6.2 DSS	6.3 DSS	6.3 DSS	9.3 DSS
CO[C@@]12[C@H](COC(N)=O)C3=C(C(=O)C(C)=C(N)C3=O)N1C[C@@H]1N[C@@H]12 [Mitomycin C]	0 DSS	0 DSS	0 DSS	0 DSS
O=C(/C=C/c1cccnc1)NCCCCC1CCN(C(=O)c2ccccc2)CC1 [Daporinad]	0 DSS	0 DSS	24.6 DSS	26.8 DSS
COc1ccc(CCc2nc3cc(-c4c(C)noc4C)ccc3n2C[C@H](C)N2CCOCC2)cc1Cl [SGC-CBP30]	0 DSS	0 DSS	0 DSS	2.4 DSS
CO[C@H]1C(=O)[C@]2(C)[C@@H](OC)C[C@H]3OC[C@@]3(OC(C)=O)[C@H]2[C@H](OC(=O)c2ccccc2)[C@]2(O)C[C@H](OC(=O)[C@H](O)[C@@H](NC(=O)OC(C)(C)C)c3ccccc3)C(C)=C1C2(C)C [Cabazitaxel]	0 DSS	9.7 DSS	16.4 DSS	11.5 DSS
CC[C@@H]1C(=O)N(C)c2cnc(Nc3ccc(C(=O)N[C@H]4CC[C@H](N5CCN(CC6CC6)CC5)CC4)cc3OC)nc2N1C(C)C [Volasertib]	0 DSS	0 DSS	0 DSS	6.6 DSS
CCCCC/C=C/C=C1/C(=O)C=C[C@@H]1C/C=C\CCCC(=O)O [15D-PGJ2]	0 DSS	0 DSS	0 DSS	0 DSS
CC[C@]1(O)C[C@H]2CN(CCc3c([nH]c4ccccc34)[C@@](C(=O)OC)(c3cc4c(cc3OC)N(C=O)[C@H]3[C@@](O)(C(=O)OC)[C@H](OC(C)=O)[C@]5(CC)C=CCN6CC[C@]43[C@@H]65)C2)C1 [Vincristine]	4.9 DSS	6 DSS	0 DSS	8.1 DSS
C[C@@H]1C[C@H]2[C@@H]3CCC4=CC(=O)C=C[C@]4(C)[C@@]3(F)[C@@H](O)C[C@]2(C)[C@@]1(O)C(=O)CO [Dexamethasone]	0 DSS	0 DSS	0 DSS	0 DSS
NS(=O)(=O)OC[C@@H]1C[C@@H](n2ccc3c(N[C@H]4CCc5ccccc54)ncnc32)C[C@@H]1O [Pevonedistat]	7.6 DSS	7 DSS	16.9 DSS	10.6 DSS
C[C@@H]1C=C2C(=O)O[C@@H]3CC[C@H](C1)[C@]23O [Galiellalactone]	2.9 DSS	1.8 DSS	0.2 DSS	2.1 DSS
Nc1ccccc1NC(=O)c1ccc(CNc2nccc(-c3cccnc3)n2)cc1 [Mocetinostat]	10.5 DSS	4.8 DSS	3.6 DSS	8.3 DSS
O=C1CN2Cc3c(ccc(Cl)c3Cl)N=C2N1 [Anagrelide]	0 DSS	0 DSS	0 DSS	0 DSS
Cn1cncc1[C@@](N)(c1ccc(Cl)cc1)c1ccc2c(c1)c(-c1cccc(Cl)c1)cc(=O)n2C [Tipifarnib]	5.9 DSS	0.8 DSS	3.5 DSS	4 DSS
Cc1nc(-c2cn3c(n2)-c2ccc(-c4cnn(C(C)(C)C(N)=O)c4)cc2OCC3)n(C(C)C)n1 [Taselisib]	0 DSS	0 DSS	0 DSS	0.9 DSS
COc1ccc(-c2ccc3c(N4CCOC[C@@H]4C)nc(N4CCOC[C@@H]4C)nc3n2)cc1CO [AZD8055]	0 DSS	0 DSS	2.3 DSS	9.6 DSS
Cc1ccc(-n2nc(C(C)(C)C)cc2NC(=O)Nc2ccc(OCCN3CCOCC3)c3ccccc23)cc1 [Doramapimod]	0 DSS	0 DSS	0 DSS	2.5 DSS
COc1cc2/c(=N/c3ccc(Br)cc3F)nc[nH]c2cc1OCC1CCN(C)CC1 [Vandetanib]	0 DSS	2 DSS	3.6 DSS	0 DSS

Structure (SMILES)	drug sensitivity score ([1]; shRNA: shPPFIA1_1)	drug sensitivity score ([1]; shRNA: shScramble)	drug sensitivity score ([2]; shRNA: shPPFIA1_1)	drug sensitivity score ([2]; shRNA: shScramble)
Cc1[nH]c(/C=C2\C(=O)Nc3ccccc32)c(C)c1CCC(=O)O [Orantinib]	10.8 DSS	16.2 DSS	0 DSS	0 DSS
O=c1[nH]c(=O)n([C@H]2C[C@H](O)[C@@H](CO)O2)cc1F [Floxuridine]	0 DSS	0.2 DSS	14.6 DSS	19.7 DSS
Cc1cc(Nc2cc(N3CCN(C)CC3)nc(Sc3ccc(NC(=O)C4CC4)cc3)n2)n[nH]1 [Tozasertib]	1.6 DSS	0.3 DSS	0 DSS	3 DSS
CC(C)Nc1cc(-c2c[nH]c(C(=O)N[C@H](CO)c3cccc(Cl)c3)c2)c(Cl)cn1 [Ulixertinib]	0 DSS	2.7 DSS	0 DSS	2.1 DSS
Clc1ccc(Nc2nnc(Cc3ccncc3)c3ccccc23)cc1 [Vatalanib]	0 DSS	0 DSS	0 DSS	0 DSS
CCOC(=O)CCNc1cc(N2CCc3ccccc3CC2)nc(-c2ccccn2)n1 [GSK-J4]	7.4 DSS	8.3 DSS	10.2 DSS	11.3 DSS
CCS(=O)(=O)N1CC(CC#N)(n2cc(-c3ncnc4[nH]ccc34)cn2)C1 [Baricitinib]	0 DSS	0 DSS	0.9 DSS	0.9 DSS
Cc1ncc(Cl)cc1NCc1ccc(C(=O)N[C@@H](CC2CCCC2)C(=O)NC2CC2)s1	0 DSS	0 DSS	0 DSS	0 DSS
CN(CC(=O)N(Cc1ccc(C2CCCCC2)cc1)c1ccc(C(=O)O)cc1)S(=O)(=O)c1c(F)c(F)c(F)c(F)c1F [SH-4-54]	7.3 DSS	7.7 DSS	3.8 DSS	5.7 DSS
C=C1C[C@@H]2[C@H](CC[C@]3(C)C(=O)CC[C@@H]23)[C@@]2(C)C=CC(=O)C=C12 [Exemestane]	0 DSS	0 DSS	0 DSS	1.4 DSS
COc1cc2nccc(Oc3ccc(NC(=O)NC4CC4)c(Cl)c3)c2cc1C(N)=O [Lenvatinib]	0 DSS	0 DSS	0 DSS	0 DSS
CN[C@@H](C)C(=O)N[C@H](C(=O)N1CCC[C@H]1c1nc(C(=O)c2ccc(F)cc2)cs1)C1CCCCC1 [LCL161]	40.9 DSS	24.4 DSS	20.5 DSS	2.5 DSS
Nc1ncnc2c1c(COc1cccc(Cl)c1)nn2C1CCOCC1	0 DSS	0 DSS	0 DSS	1.2 DSS
CC[C@H](CC#N)OC(=O)N[C@@H](C)c1cccc(NC(=O)Nc2ccc(-c3cnco3)c(OC)c2)c1 [AVN944]	0 DSS	0 DSS	0 DSS	5.4 DSS
S=c1[nH]cnc2nc[nH]c12 [Mercaptopurine]	0 DSS	0 DSS	5.1 DSS	12 DSS
CNC(=O)c1ccc(N2C(=S)N(c3ccc(C#N)c(C(F)(F)F)c3)C(=O)C2(C)C)cc1F [Enzalutamide]	0 DSS	0 DSS	0 DSS	0 DSS
Nc1ncnc2c1nc(Cl)n2[C@@H]1O[C@H](CO)[C@@H](O)[C@H]1O [8-chloro-adenosine]	0.9 DSS	0 DSS	1.3 DSS	10.6 DSS
CN(C)C(=O)c1cc2cnc(Nc3ccc(N4CCNCC4)cn3)nc2n1C1CCCC1 [Ribociclib]	0 DSS	0 DSS	0 DSS	0 DSS
c1ccc(Cn2c(-c3ccc(OC[C@H](C4CCNCC4)n4c(-c5ccccc5)nc5ccccc54)cc3)nc3ccccc32)cc1 [deltarasin]	9.2 DSS	7.3 DSS	5.7 DSS	7.3 DSS
